*1 amine or outer side, *2 acyl side, *3 side chain or, on linkers, in order; H or OH if unused. Where a SMILES comes first, the peptide text is derived from it. [ ]: non-standard residue; d: D form. X1 = O=C([C@@H]1C[C@H](n2cc([C]34[CH]5[CH]6[CH]7[CH]3[Fe]6754389%10[CH]4[CH]3[CH]8[CH]9[CH]4%10)nn2)CN1[*:1])[*:2]; Cit = NC(=O)NCCC[C@H](N)C(=O)O
Molecular target: T1, HIV-1 YU2 gp120 (Human immunodeficiency virus type 1 group M subtype B, UniProt P35961)
T1 construct: made in house; host or cells: Drosophila S2 cells
Format: binding
Details: for dissociation rate constant (koff): Table 11, dissociation rate; for Ka: Table 11, association rate
Procedure: Surface plasmon resonance (SPR) interaction analyses were performed on a Biacore® 3000 optical biosensor (GE). All experiments were carried out at 25° C. using standard PBS, pH 7.4, with 0.005% Surfactant P20.
Regeneration of the surface was achieved by a one 5-second pulse of 10 mM glycine, pH 1.5.
SPR data analyses were performed using BIAEvaluation 4.0 software (GE). […] Experimental data were fitted to a simple 1:1 binding model with a parameter included for mass transport. […] The inhibition curve was converted into a calibration curve by the use of a fitting function. The fitting was done using the 4-parameter equation in BIAevaluation software: […]

Structure (SMILES) | dissociation rate constant (koff) | Ka
CC[C@H](C)[C@H](NC(=O)[C@@H](N)CCCNC(=N)N)C(=O)N[C@@H](CC(N)=O)C(=O)N[C@@H](CC(N)=O)C(=O)N[C@H](C(=O)N1C[C@@H](n2cc([C]34[CH]5[CH]6[CH]7[CH]3[Fe]6754389%10[CH]4[CH]3[CH]8[CH]9[CH]4%10)nn2)C[C@H]1C(=O)N[C@@H](Cc1c[nH]c2ccccc12)C(=O)N[C@@H](CO)C(N)=O)[C@@H](C)CC (stereo partly shown) [UM11] (H-RINNI[X1]WS-NH2; N-terminus and C-terminus assumed) | 2.1E−02 ± 0.6 1/S | 
CC[C@H](C)[C@H](NC(=O)[C@@H](N)CCCNC(=N)N)C(=O)N[C@@H](CC(N)=O)C(=O)N[C@@H](CC(N)=O)C(=O)N[C@H](C(=O)N1C[C@@H](n2cc([C]34[CH]5[CH]6[CH]7[CH]3[Fe]6754389%10[CH]4[CH]3[CH]8[CH]9[CH]4%10)nn2)C[C@H]1C(N)=O)[C@@H](C)CC (stereo partly shown) [UM16] (H-RINNI[X1]-NH2; N-terminus assumed) | Not detectable | Not detectable
CC[C@H](C)[C@H](N)C(=O)N[C@@H](CC(N)=O)C(=O)N[C@@H](CC(N)=O)C(=O)N[C@H](C(=O)N1C[C@@H](n2cc([C]34[CH]5[CH]6[CH]7[CH]3[Fe]6754389%10[CH]4[CH]3[CH]8[CH]9[CH]4%10)nn2)C[C@H]1C(=O)N[C@@H](Cc1c[nH]c2ccccc12)C(=O)N[C@@H](CO)C(N)=O)[C@@H](C)CC (stereo partly shown) [UM21] (H-INNI[X1]WS-NH2; N-terminus and C-terminus assumed) | 1.4E−03 ± 0.5 1/S | 
CC[C@H](C)[C@H](NC(=O)[C@H](CC(N)=O)NC(=O)[C@H](CC(N)=O)NC(=O)[C@@H](N)CCCNC(=N)N)C(=O)N1C[C@@H](n2cc([C]34[CH]5[CH]6[CH]7[CH]3[Fe]6754389%10[CH]4[CH]3[CH]8[CH]9[CH]4%10)nn2)C[C@H]1C(=O)N[C@@H](Cc1c[nH]c2ccccc12)C(=O)N[C@@H](CO)C(N)=O (stereo partly shown) [UM22] (H-RNNI[X1]WS-NH2; N-terminus and C-terminus assumed) | 6.8E−03 ± 0.4 1/S | 
CC[C@H](C)[C@H](NC(=O)[C@H](CC(N)=O)NC(=O)[C@H](CC(N)=O)NC(=O)[C@@H](N)CCC(=O)O)C(=O)N1C[C@@H](n2cc([C]34[CH]5[CH]6[CH]7[CH]3[Fe]6754389%10[CH]4[CH]3[CH]8[CH]9[CH]4%10)nn2)C[C@H]1C(=O)N[C@@H](Cc1c[nH]c2ccccc12)C(=O)N[C@@H](CO)C(N)=O (stereo partly shown) [UM23] (H-ENNI[X1]WS-NH2; N-terminus and C-terminus assumed) | 3.4E−03 ± 0.2 1/S | 
CC[C@H](C)[C@H](NC(=O)[C@H](CC(N)=O)NC(=O)[C@H](CC(N)=O)NC(=O)[C@@H](N)CCCNC(N)=O)C(=O)N1C[C@@H](n2cc([C]34[CH]5[CH]6[CH]7[CH]3[Fe]6754389%10[CH]4[CH]3[CH]8[CH]9[CH]4%10)nn2)C[C@H]1C(=O)N[C@H](Cc1c[nH]c2ccccc12)C(=O)N[C@@H](CO)C(N)=O (stereo partly shown) [UM24-DW] (H-[Cit]NNI[X1][dW]S-NH2; N-terminus assumed) | Not detectable | Not detectable
CC[C@H](C)[C@H](NC(=O)[C@H](CC(N)=O)NC(=O)[C@H](CC(N)=O)NC(=O)[C@@H](N)CCCCN)C(=O)N1C[C@@H](n2cc([C]34[CH]5[CH]6[CH]7[CH]3[Fe]6754389%10[CH]4[CH]3[CH]8[CH]9[CH]4%10)nn2)C[C@H]1C(=O)N[C@@H](Cc1c[nH]c2ccccc12)C(=O)N[C@@H](CO)C(N)=O (stereo partly shown) [UM27] (H-KNNI[X1]WS-NH2) | 8.8E−03 ± 2.1 1/S | 
CC[C@H](C)[C@H](NC(=O)[C@H](CC(N)=O)NC(=O)[C@H](CC(N)=O)NC(=O)[C@@H](N)Cc1ccccc1)C(=O)N1C[C@@H](n2cc([C]34[CH]5[CH]6[CH]7[CH]3[Fe]6754389%10[CH]4[CH]3[CH]8[CH]9[CH]4%10)nn2)C[C@H]1C(=O)N[C@@H](Cc1c[nH]c2ccccc12)C(=O)N[C@@H](CO)C(N)=O (stereo partly shown) [UM28] (H-FNNI[X1]WS-NH2) | 4.3E−03 ± 0.8 1/S | 

From patent US8951963B2, “Active cores of peptide triazole HIV-1 entry inhibitors” (priority 2009, dated 2015)
